Test results: patent US20160251403A1, “PEPTIDE COMBINATIONS AND USES THEREOF IN TREATING DUST MITE ALLERGY” (ALK-ABELLO A/S, priority 2013, published 2016)
No end group written: not given here.

Columns and labels:
DRB1_1302 = DRB1_1302 (Homo sapiens, UniProt P01903+P01911, A100E/A169T/K41T/L162R/M171V/P40S/Q125H/Q178H/Q39Y/Q99D/R42S/S66N/T262R/V115G/W38E/Y61H); assay: Competitive MHC class II binding assay, DRB1_1302;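 also: purified HLA class II protein incubated two to four days with a radiolabeled reference binder and test peptide at six concentrations over a 100,000-fold range, complex-bound radioactivity counted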
DRB3_0101 = DRB3_0101 (Homo sapiens, UniProt P01903+P79483); assay: Competitive MHC class II binding assay, DRB3_0101
DRB3_0202 = DRB3_0202 (Homo sapiens, UniProt P01903+P79483, A212P/D57E/F66Y/L67A/R103Q/R218S/R40L/S89Y/T80R/V86D/Y55F/Y59H); assay: Competitive MHC class II binding assay, DRB3_0202
DQA10501-DQB10201 = DQA10501-DQB10201 (Homo sapiens, UniProt P01909+P01920, A45G/A70V/D89A/E106A/E77G/E98D/H199R/L107V/N214S/P84L/P87L/T103K/T109R/T172A/T60S/V78E/V99I/Y58L/Y62S/Y69I/Y79F); assay: Competitive MHC class II binding assay, DQA10501-DQB10201
DRB1_0101 = DRB1_0101 (Homo sapiens, UniProt P01903+P01911, A100R/D57E/F55L/F60I/F76Y/I96L/L162R/M171V/P40L/Q125E/R42F/V115G/Y59C); assay: Competitive MHC class II binding assay, DRB1_0101;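 also: competition against a radiolabeled probe peptide (0.1–1 nM) for purified HLA class II protein over 2–4 days, bound counts read after antibody capture, six competitor levels across 100,000-fold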
DRB1_0701 = DRB1_0701 (Homo sapiens, UniProt P01903+P01911, A100R/A102G/A103Q/D57E/D86V/E43K/F76Y/K127E/L162R/M171V/P40G/Q125H/Q99D/R33Q/R42Y/R54Q/S133A/S66F/T210M/V115G/Y107V/Y59L/Y89S); assay: Competitive MHC class II binding assay, DRB1_0701;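 also: displacement of a radiolabeled reference peptide from purified HLA class II protein, with complex-bound radioactivity counted after 2–4 days of incubation and six concentrations spanning a 100,000-fold range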
DRB1_0901 = DRB1_0901 (Homo sapiens, UniProt P01903+P01911, A100R/A103E/D57H/D86V/F55Y/F60I/F76Y/I96F/K127E/L162R/M171V/P40D/Q125H/Q99R/R33Q/R42F/S133A/S66N/T210M/V115G/W38K/Y107V/Y59G/Y89S); assay: Competitive MHC class II binding assay, DRB1_0901;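 also: displacement of a radiolabeled probe peptide from purified HLA class II protein, bound counts read after two to four days incubation, six concentrations spanning 100,000-fold, unlabeled probe as reference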
DRB4_0101 = DRB4_0101 (Homo sapiens, UniProt P01903+P13762, G164S); assay: Competitive MHC class II binding assay, DRB4_0101
DRB5_0101 = DRB5_0101 (Homo sapiens, UniProt P01903+Q30154); assay: Competitive MHC class II binding assay, DRB5_0101
DQA10501-DQB10301 = DQA10501-DQB10301 (Homo sapiens, UniProt P01909+P01920); assay: Competitive MHC class II binding assay, DQA10501-DQB10301
DQA10102-DQB10602 = assay: Competitive MHC class II binding assay, DQA10102-DQB10602; settings: read-out: HLA-DQA10102-DQB10602; positive binding at cutoff 1000 nM
[1] = Solubility of peptides in aqueous solutions at different pH (visual inspection, OD, HPLC); assay type: physicochemical; settings: for Solubility at pH 7: evaluated by visual inspection
From the text: This example describes modifications of parent peptides to improve the aqueous solubility, in particular to increase the solubility in an aqueous solution having pH in a physiologically acceptable range, e.g. from 6 to 8. Solubility is closely related to the ratio between hydrophilic and hydrophobic amino acid residues and the net charge state of the peptide. Peptides have zero net charge at pH=pI, and would be expected to show the lowest solubility at this pH. […] The solubility of these peptides was increased at pH values outside the physiological range (data not shown).
Peptides were tested for their ability to dissolve in aqueous solutions at different pH values. In short, each of the peptides were dissolved in water (pH about 5-6), hydrochloride solution at pH 2 (10 mM HCl), acetate buffer with pH 5 (20 mM acetate and 140 mM sodium chloride), phosphate buffer with pH 7 (20 mM phosphate and 140 mM sodium chloride) or bistrispropate buffer with pH 9 (20 mM bitrispropane and 140 mM sodium chloride, respectively, to produce a final molar concentration of the peptide of about 0.25 mM or 1 mM. Optionally, about 20% DMSO may be part of the solution. For comparison reasons, peptides were also dissolved in acetonitrile or DMSO. The solutions were inspected visually before and after centrifugation for turbidity, presence of particles/aggregates. In addition, presence of turbidity/particles/aggregates were detected by optical density (OD), but might also be detected by size-exclusion chromatography. Sub-visual particles may also be detected by dynamic light scattering (DLS) analysis. The solubility and stability of each peptide were also investigated using HPLC, e.g. RP-HPLC. For example, each of the solutions were injected onto the HPLC and the peak height or peak area of each of the peptides were compared to the corresponding peptide of a chromatogram of peptides dissolved in acetonitrile or DMSO—as peptides were assumed to be fully dissolved and stable in these solvents.

DRB1_0401 = DRB1_0401 (Homo sapiens, UniProt P01903+P01911, A100K/A169T/F76Y/I96L/K127E/L162R/M171V/N62H/P40V/Q125Y/R42H/S133A/S149N/S66Y/V115G/V209L/W38E); assay: Competitive MHC class II binding assay, DRB1_0401
DRB1_0405 = DRB1_0405 (Homo sapiens, UniProt P01903+P01911, A100R/A169T/D86S/F76Y/I96L/K127E/L162R/M171V/N62H/P40V/Q125Y/R42H/S133A/S149N/S66Y/V115G/V209L/W38E); assay: Competitive MHC class II binding assay, DRB1_0405
DRB1_0802 = DRB1_0802 (Homo sapiens, UniProt P01903+P01911, A100R/A103L/A169T/F76Y/H45Y/I96F/K41T/L162R/M171V/P40S/Q125H/Q178H/Q39Y/Q99D/R218S/R42G/S66Y/V115G/W38E); assay: Competitive MHC class II binding assay, DRB1_0802
DRB1_1101 = DRB1_1101 (Homo sapiens, UniProt P01903+P01911, A100R/A169T/A87E/I96F/K41T/L162R/M171V/P40S/Q125H/Q178H/Q39Y/Q99D/R42S/S66Y/T262R/V115G/W38E); assay: Competitive MHC class II binding assay, DRB1_1101
DRB1_1501 = DRB1_1501 (Homo sapiens, UniProt P01903+P01911); assay: Competitive MHC class II binding assay, DRB1_1501

TNASSINGNAPAEIDLRQM [pep-041]
IC50 (DRB1_1302): < 1000 nM | IC50 (DRB3_0101): < 1000 nM | IC50 (DRB3_0202): < 1000 nM | IC50 (DQA10501-DQB10201): < 1000 nM

YPPNANKIREALAQTHSAIA [pep-053]
IC50 (DRB1_0101): < 1000 nM | IC50 (DRB1_0701): < 1000 nM | IC50 (DRB1_0901): < 1000 nM | IC50 (DRB4_0101): < 1000 nM | IC50 (DRB5_0101): < 1000 nM | IC50 (DQA10501-DQB10301): < 1000 nM | IC50 (DQA10102-DQB10602): < 1000 nM

HRGKPFQLEAVFEANQNTKT-NH2 [pep-151]
Solubility at pH 7 ([1]; Table 11c): Clear

RRRRHAVNIVGYSNAQGVDYWIVR [Peptide 132]
Solubility at pH 7 (visual inspection) [1]: Slight turbid

RIEYIQQNGVVEERSYPYVARR [Peptide 140]
Solubility at pH 7 (visual inspection) [1]: Clear

SYYRYVAREQS [HDM205, reference compound]
IC50 (DRB1_0401): < 1000 nM | IC50 (DRB1_0405): < 1000 nM | IC50 (DRB1_0701): < 1000 nM | IC50 (DRB1_0802): < 1000 nM | IC50 (DRB1_0901): < 1000 nM | IC50 (DRB1_1101): < 1000 nM | IC50 (DRB1_1302): < 1000 nM | IC50 (DRB1_1501): < 1000 nM | IC50 (DRB4_0101): < 1000 nM

RGLKQMKRVGDANV [HDM35A, reference compound]
IC50 (DRB1_0101): < 1000 nM | IC50 (DRB1_0802): < 1000 nM | IC50 (DRB1_1101): < 1000 nM

RHAVNIVGYSNAQGVDYWIVR [Peptide 136]
Solubility at pH 7 (visual inspection) [1]: Slight turbid

CC[C@H](C)[C@H](NC(=O)[C@H](CO)NC(=O)[C@@H]1CCCN1C(=O)[C@H](CCC(=O)O)NC(=O)[C@H](CO)NC(=O)CNC(=O)[C@H](Cc1c[nH]cn1)NC(=O)[C@H](CO)NC(=O)CN)C(=O)N[C@H](C(=O)N[C@@H](Cc1c[nH]cn1)C(=O)N[C@@H](CCCNC(=N)N)C(=O)NCC(=O)N[C@@H](CCCCN)C(=O)N1CCC[C@H]1C(=O)N[C@@H](Cc1ccccc1)C(=O)N[C@@H](CCC(N)=O)C(=O)N[C@@H](CC(C)C)C(=O)N[C@@H](CCC(=O)O)C(=O)N[C@@H](C)C(=O)O)[C@@H](C)CC [pep-090]
IC50 (DRB1_0101): < 1000 nM | IC50 (DRB1_0701): < 1000 nM | IC50 (DRB1_0901): < 1000 nM | IC50 (DRB1_1302): < 1000 nM | IC50 (DRB1_1501): < 1000 nM | IC50 (DRB4_0101): < 1000 nM | IC50 (DQA10501-DQB10301): < 1000 nM | IC50 (DQA10102-DQB10602): < 1000 nM

LVGDNGVLASAIATHAKIRD-NH2 [pep-149]
Solubility at pH 7 ([1]; Table 11c): Clear

RRIEYIQQNGVVEERSYPYVARRR [Peptide 142]
Solubility at pH 7 (visual inspection) [1]: Clear

NHEIKKVLVPGSHGSEPSII [pep-089]
IC50 (DRB1_0802): < 1000 nM | IC50 (DRB4_0101): < 1000 nM

RGIEYIQQNGVVEERSYPYVAR [pep-134]
Solubility at pH 7 ([1]; Table 11a): Clear

CC[C@H](C)[C@H](NC(=O)CNC(=O)[C@@H](N)CCCNC(=N)N)C(=O)N[C@@H](CCC(=O)O)C(=O)N[C@@H](Cc1ccc(O)cc1)C(=O)N[C@H](C(=O)N[C@@H](CCC(N)=O)C(=O)N[C@@H](Cc1c[nH]cn1)C(=O)N[C@@H](CC(N)=O)C(=O)NCC(=O)N[C@H](C(=O)N[C@H](C(=O)N[C@@H](CCC(N)=O)C(=O)N[C@@H](CCC(=O)O)C(=O)N[C@@H](CO)C(=O)O)C(C)C)C(C)C)[C@@H](C)CC [pep-025]
IC50 (DQA10102-DQB10602): < 1000 nM

RRIEYIQQNGVVEERSYPYVARR [Peptide 141]
Solubility at pH 7 (visual inspection) [1]: Clear

RRHAVNIVGYSNAQGVDYWIVRR [Peptide 138]
Solubility at pH 7 (visual inspection) [1]: Slight turbid

RHAVNIVGYSNAQGVDYWIVRR [Peptide 137]
Solubility at pH 7 (visual inspection) [1]: Clear

CC[C@H](C)[C@H](NC(=O)[C@@H](NC(=O)[C@@H](N)CO)[C@@H](C)CC)C(=O)N[C@@H](Cc1c[nH]cn1)C(=O)N[C@@H](CCCNC(=N)N)C(=O)NCC(=O)N[C@@H](CCCCN)C(=O)N1CCC[C@H]1C(=O)N[C@@H](Cc1ccccc1)C(=O)N[C@@H](CCC(N)=O)C(=O)N[C@@H](CC(C)C)C(=O)N[C@@H](CCC(=O)O)C(=O)N[C@@H](C)C(=O)O [pep-002]
IC50 (DRB1_0101): < 1000 nM | IC50 (DRB1_0701): < 1000 nM | IC50 (DRB1_0901): < 1000 nM | IC50 (DRB1_1302): < 1000 nM | IC50 (DRB1_1501): < 1000 nM | IC50 (DRB4_0101): < 1000 nM | IC50 (DQA10501-DQB10301): < 1000 nM

RRHAVNIVGYSNAQGVDYWIVRRR [Peptide 133]
Solubility at pH 7 (visual inspection) [1]: Clear

RREALAQTHSAIAVIIGIKDLDA [Peptide 143]
Solubility at pH 7 (visual inspection) [1]: Slight turbid

RIEYIQQNGVVEERSYPYVAR [Peptide 139]
Solubility at pH 7 (visual inspection) [1]: Clear

GSHGSDPSIIHRGKPFTLEA [pep-102]
IC50 (DRB1_0101): < 1000 nM | IC50 (DRB1_0701): < 1000 nM | IC50 (DRB1_0901): < 1000 nM | IC50 (DRB1_1501): < 1000 nM | IC50 (DRB4_0101): < 1000 nM | IC50 (DQA10501-DQB10301): < 1000 nM | IC50 (DQA10102-DQB10602): < 1000 nM

RREALAQTHSAIAVIIGIKDLDAR [Peptide 144]
Solubility at pH 7 (visual inspection) [1]: Clear

RRREALAQTHSAIAVIIGIKDLDAR [Peptide 145]
Solubility at pH 7 (visual inspection) [1]: Clear

ESVKYVQSNGGAI [HDM201, reference compound]
IC50 (DRB1_0101): < 1000 nM | IC50 (DRB1_0401): < 1000 nM | IC50 (DRB1_0405): < 1000 nM | IC50 (DRB1_0701): < 1000 nM | IC50 (DRB1_0802): < 1000 nM | IC50 (DRB1_0901): < 1000 nM | IC50 (DRB1_1302): < 1000 nM | IC50 (DRB1_1501): < 1000 nM | IC50 (DRB3_0101): < 1000 nM | IC50 (DRB4_0101): < 1000 nM

RRREALAQTHSAIAVIIGIKDLDARR [Peptide 146]
Solubility at pH 7 (visual inspection) [1]: Clear

KIREALAQTHSAIAVIIGIKDLDA-NH2 [pep-150]
Solubility at pH 7 ([1]; Table 11c): Clear
